{
  "source": "patent US20190175785A1",
  "about": "“SILK FIBROIN SYSTEMS FOR ANTIBIOTIC DELIVERY” (Trustees of Tufts College, priority 2009, published 2019)",
  "key": {"[1]": {"system": "S. aureus ATCC 25923", "conditions": "S. aureus ATCC 25923, NCCLS (2000); cited from earlier work"}, "[2]": {"system": "E. coli ATCC 25922", "conditions": "E. coli ATCC 25922, NCCLS (2000); cited from earlier work"}, "[3]": {"assay": "Long-term stability study, residual activity of stored penicillin", "type": "physicochemical", "conditions": "stored at 25° C. and 37° C.", "procedure": "To determine if incorporation into silk films would have a similar stabilizing effect to that observed for enzymes, a long-term stability study was carried out comparing the residual activity of penicillin stored in 8% (w/v) silk films or in solution at 4° C. (refrigeration), 25° C. (room temperature) and 37° C. (body temperature).\nStability was also characterized for dry penicillin powder stored at 4° C., 25° C., and 37° C. Comparison of the stability of penicillin stored in silk films, in solution and in dry powder format over 60 days is shown in FIG. 14."}, "[4]": {"conditions": "cited from earlier work"}},
  "note": "Where two headings read alike, the source gives them in different places.",
  "data": [
    {"compound": "Cc1nnc(SCC2=C(C(=O)O)N3C(=O)[C@@H](NC(=O)Cn4cnnn4)[C@H]3SC2)s1", "note": "[cefazolin]", "values": [
      {"measurement": "MIC", "setting": "[1]", "result": 0.25, "unit": "µg/mL"},
      {"measurement": "MIC", "setting": "[2]", "result": 1.0, "unit": "µg/mL"}
    ]},
    {"compound": "gentamicin", "values": [
      {"measurement": "MIC", "setting": "[1]", "result": 0.25, "unit": "µg/mL"},
      {"measurement": "MIC", "setting": "[2]", "result": 0.5, "unit": "µg/mL"}
    ]},
    {"compound": "penicillin", "values": [
      {"measurement": "stability of penicillin in solution", "setting": "[3]", "result": "rapidly declines"},
      {"measurement": "time of breakdown in solution", "setting": "[4]; 37° C.", "result": "≤ 24", "unit": "h"},
      {"measurement": "time of breakdown in solution", "setting": "[4]; room temperature (25° C.)", "result": "within weeks"}
    ]}
  ]
}
